{"source": "PubChem BioAssay AID2060611", "about": "(Molecular Pharmacology Branch, DTP, NCI, 2025);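 further: spheroids exposed to agents for seven days before readout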;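 on viability, T/C: 100% = DMSO vehicle control viability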", "test_system": "628569-122-R-J1-PDC complex spheroid viability", "experiment": "Anticancer human tumor 628569-122-R-J1-PDC patient-derived head and neck squamous carcinoma cell line growth inhibition [CLK]", "settings": "for IC50: curve of first compound; for viability, T/C: stronger effect = lower value", "excerpt": "A high-throughput screen of multi-cell type tumor spheroids was designed to identify active combinations of […] and targeted small molecules. Complex spheroids include a stromal component modeled by human endothelial cells (HUVEC) and fibroblasts modeled by human mesenchymal stem cells (MSCs). The concentration ranges selected for each drug and investigational agent were based upon clinically achievable concentrations if the clinical Cmax of the agent was known.\nCompounds. The drugs and investigational agents: cirtuvivint (SM08502; NSC835563), CC-671 (NSC850746), vemurafenib (NSC761431), tapotoclax (NSC804041), sotorasib (NSC818433), adagrasib (NSC831453), MRTX-1133 (NSC836407), BAY2416964 (NSC825713), copanlisib (NSC816437), inavolisib (NSC800729), abemaciclib (NSC768073), osimertinib (NSC779217), entinostat (NSC756642), eltanexor (KPT-8602, NSC794443), venetoclax (NSC766270), ceralasertib (NSC777638), bortezomib (NSC756655), olaparib (NSC753686), talazoparib (NSC767125), alisertib (NSC759677), peposertib (NSC802822), gemcitabine (NSC613327), 5-fluorouracil (NSC19893), SN-38 (NSC673596), oxaliplatin (NSC266046), paclitaxel (NSC125973), and doxorubicin (NSC123127), were obtained from the National Cancer Institute (NCI) Developmental Therapeutics Program Chemical Repository. The FDA-approved anticancer drug set is available from the Developmental Therapeutics Program at https://dtp.cancer.gov/organization/dscb/obtaining/available plates.htm. […] The stock solutions were prepared in dimethyl sulfoxide (DMSO, Sigma-Aldrich, St. Louis, MO, cat. D2650), except for the platinum complexes which were prepared in saline (Quality Biological, Gaithersburg, MD, cat. 114-055-101), at 800-fold the tested concentration and stored at -70 degrees C prior to their use. All drugs and investigational agents were tested over a range starting from a high concentration at or near the clinical Cmax and decreasing in half-log increments. If the clinical Cmax for an agent had not been determined, the highest concentration tested was 10 microM.\nCell Culture. All cells were maintained in an incubator at 37 degrees C and 5% CO2 with 95% humidity. The PDC lines were cultured according to standard operating procedures established by the NCI PDMR. Briefly, all PDCs were thawed and cultured in Matrigel-coated flasks prepared with a working solution of 1X Ham's F-12 nutrient mix, without supplementation (Invitrogen, Waltham, MA, cat. 11765054), 100 U/mL penicillin-streptomycin (Invitrogen, cat. 15140122), and 2.5% Matrigel (Corning Inc., Corning, NY, cat. 354248) for the first three passages. The 947758-054-R-J2-PDC line was cultured in 6B/Colon 1A media, which includes advanced DMEM/F-12 (Thermo Fisher Scientific, cat. 12634028), 10 mM HEPES (Thermo Fisher Scientific, cat. 15630080), 1X GlutaMAX supplement (Thermo Fisher Scientific, cat. 35050061), 0.1 mg/mL primocin (InvivoGen, cat. ant-pm-2), 10% defined fetal bovine serum, heat inactivated (HyClone Laboratories Inc., cat. SH30070.03HI), 1.25 mM N-Acetyl-L-cysteine (Sigma-Aldrich, cat. A9165), 10 mM nicotinamide (Sigma-Aldrich, cat. N0636), 1X B-27 supplement (Thermo Fisher Scientific, cat. 17504044), 1X N-2 supplement (Thermo Fisher Scientific, cat. 17502048), and 10 microM Y-27632 dihydrochloride (Tocris Bioscience, cat. 1254). The 876862-298-R-J1-PDC was cultured in 6E media, which includes all 6B/Colon 1A media components plus 50% L-WRN conditioned media (ATCC, cat. CRL-3276), 50 ng/mL recombinant human EGF recombinant protein (hEGF; Thermo Fisher Scientific, cat. PHG0311), 10 ng/mL recombinant human fibroblast growth factor 10 (hGFG-10; PeproTech, cat. 100-26), 1 ng/mL recombinant human fibroblast growth factor 2 (hFGF-2; PeproTech, cat. 100-18B), and 1 µM prostaglandin E2 (PGE2; Tocris, cat. 2296). The 227483-062-R1-J1-PDC line was cultured in Panc media, containing all 6E components except hFGF-2, with the addition of 500 nM SB-431542 (Selleckchem, cat. S1067) and 10 nM gastrin (Tocris, cat. 3006). […]", "data": [{"smiles": "CC(Nc1ccc2c(c1)OCCn1cc(N3C(=O)OCC3C(F)F)nc1-2)C(N)=O", "note": "(configuration not stated) + CNC(=O)c1ccc(Nc2nc(OC3CCCC3)c3c(-c4ccc5nc(C)oc5c4)c[nH]c3n2)c(OC)c1", "values": [{"measurement": "IC50", "setting": "second compound 0.0316 µM", "result": 269, "unit": "nM"}, {"measurement": "IC50", "setting": "second compound 0.1 µM", "result": 31.7, "unit": "nM"}, {"measurement": "IC50", "setting": "second compound 0.316 µM", "result": "< 31.6", "unit": "nM"}, {"measurement": "IC50", "setting": "second compound 1 µM", "result": "< 31.6", "unit": "nM"}, {"measurement": "IC50", "setting": "second compound 3.16 µM", "result": "< 31.6", "unit": "nM"}, {"measurement": "IC50", "setting": "second compound 10 µM", "result": "< 31.6", "unit": "nM"}, {"measurement": "viability, T/C", "setting": "second compound 0.0316 µM, first compound 0.0316 µM", "result": 67.3, "unit": "%"}, {"measurement": "viability, T/C", "setting": "second compound 0.0316 µM, first compound 0.1 µM", "result": 61.1, "unit": "%"}, {"measurement": "viability, T/C", "setting": "second compound 0.0316 µM, first compound 0.316 µM", "result": 48.2, "unit": "%"}, {"measurement": "viability, T/C", "setting": "second compound 0.0316 µM, first compound 1 µM", "result": 34.2, "unit": "%"}, {"measurement": "viability, T/C", "setting": "second compound 0.0316 µM, first compound 3.16 µM", "result": 41.8, "unit": "%"}, {"measurement": "viability, T/C", "setting": "second compound 0.0316 µM, first compound 10 µM", "result": 26.5, "unit": "%"}, {"measurement": "viability, T/C", "setting": "second compound 0.1 µM, first compound 0.0316 µM", "result": 55.7, "unit": "%"}, {"measurement": "viability, T/C", "setting": "second compound 0.1 µM, first compound 0.1 µM", "result": 38.5, "unit": "%"}, {"measurement": "viability, T/C", "setting": "second compound 0.1 µM, first compound 0.316 µM", "result": 31.9, "unit": "%"}, {"measurement": "viability, T/C", "setting": "second compound 0.1 µM, first compound 1 µM", "result": 40.5, "unit": "%"}, {"measurement": "viability, T/C", "setting": "second compound 0.1 µM, first compound 3.16 µM", "result": 38.2, "unit": "%"}, {"measurement": "viability, T/C", "setting": "second compound 0.1 µM, first compound 10 µM", "result": 17.7, "unit": "%"}, {"measurement": "viability, T/C", "setting": "second compound 0.316 µM, first compound 0.0316 µM", "result": 41, "unit": "%"}, {"measurement": "viability, T/C", "setting": "second compound 0.316 µM, first compound 0.1 µM", "result": 44.8, "unit": "%"}, {"measurement": "viability, T/C", "setting": "second compound 0.316 µM, first compound 0.316 µM", "result": 36.5, "unit": "%"}, {"measurement": "viability, T/C", "setting": "second compound 0.316 µM, first compound 1 µM", "result": 43.1, "unit": "%"}, {"measurement": "viability, T/C", "setting": "second compound 0.316 µM, first compound 3.16 µM", "result": 32.3, "unit": "%"}, {"measurement": "viability, T/C", "setting": "second compound 0.316 µM, first compound 10 µM", "result": 16.9, "unit": "%"}, {"measurement": "viability, T/C", "setting": "second compound 1 µM, first compound 0.0316 µM", "result": 39.5, "unit": "%"}, {"measurement": "viability, T/C", "setting": "second compound 1 µM, first compound 0.1 µM", "result": 32.6, "unit": "%"}, {"measurement": "viability, T/C", "setting": "second compound 1 µM, first compound 0.316 µM", "result": 29.6, "unit": "%"}, {"measurement": "viability, T/C", "setting": "second compound 1 µM, first compound 1 µM", "result": 27.5, "unit": "%"}, {"measurement": "viability, T/C", "setting": "second compound 1 µM, first compound 3.16 µM", "result": 23.4, "unit": "%"}, {"measurement": "viability, T/C", "setting": "second compound 1 µM, first compound 10 µM", "result": 13.5, "unit": "%"}, {"measurement": "viability, T/C", "setting": "second compound 3.16 µM, first compound 0.0316 µM", "result": 37.1, "unit": "%"}, {"measurement": "viability, T/C", "setting": "second compound 3.16 µM, first compound 0.1 µM", "result": 31.7, "unit": "%"}, {"measurement": "viability, T/C", "setting": "second compound 3.16 µM, first compound 0.316 µM", "result": 26.8, "unit": "%"}, {"measurement": "viability, T/C", "setting": "second compound 3.16 µM, first compound 1 µM", "result": 22.2, "unit": "%"}, {"measurement": "viability, T/C", "setting": "second compound 3.16 µM, first compound 3.16 µM", "result": 20.8, "unit": "%"}, {"measurement": "viability, T/C", "setting": "second compound 3.16 µM, first compound 10 µM", "result": 16.3, "unit": "%"}, {"measurement": "viability, T/C", "setting": "second compound 10 µM, first compound 0.0316 µM", "result": 34.7, "unit": "%"}, {"measurement": "viability, T/C", "setting": "second compound 10 µM, first compound 0.1 µM", "result": 28.2, "unit": "%"}, {"measurement": "viability, T/C", "setting": "second compound 10 µM, first compound 0.316 µM", "result": 26.5, "unit": "%"}, {"measurement": "viability, T/C", "setting": "second compound 10 µM, first compound 1 µM", "result": 25.9, "unit": "%"}, {"measurement": "viability, T/C", "setting": "second compound 10 µM, first compound 3.16 µM", "result": 23.2, "unit": "%"}, {"measurement": "viability, T/C", "setting": "second compound 10 µM, first compound 10 µM", "result": 13.2, "unit": "%"}]}]}
